Reference: patent EP0371732A1, “Dopamine-beta-hydroxylase inhibitors” (SMITHKLINE BEECHAM CORPORATION, priority 1988, dated 1990)

Legend:
DBH = target: T1, DBH (Homo sapiens, UniProt P09172); details: reported by Runti et al.; cited from earlier work
T1 sequence (P09172 1-617): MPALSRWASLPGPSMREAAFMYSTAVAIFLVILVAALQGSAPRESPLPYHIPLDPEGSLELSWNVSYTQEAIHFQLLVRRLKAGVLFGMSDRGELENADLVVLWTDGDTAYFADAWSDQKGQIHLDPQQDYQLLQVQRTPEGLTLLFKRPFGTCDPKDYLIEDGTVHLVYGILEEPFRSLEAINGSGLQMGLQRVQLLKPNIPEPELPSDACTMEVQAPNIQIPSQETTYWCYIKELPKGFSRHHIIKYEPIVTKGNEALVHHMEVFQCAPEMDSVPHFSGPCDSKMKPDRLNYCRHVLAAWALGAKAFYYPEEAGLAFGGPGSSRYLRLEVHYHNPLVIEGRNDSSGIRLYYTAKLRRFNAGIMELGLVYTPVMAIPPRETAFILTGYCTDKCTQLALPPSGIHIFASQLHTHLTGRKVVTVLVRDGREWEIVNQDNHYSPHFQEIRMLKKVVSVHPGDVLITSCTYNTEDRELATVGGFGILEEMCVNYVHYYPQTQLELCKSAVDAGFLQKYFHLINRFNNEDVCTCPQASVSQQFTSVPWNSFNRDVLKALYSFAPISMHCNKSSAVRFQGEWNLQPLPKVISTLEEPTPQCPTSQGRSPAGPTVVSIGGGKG

[1] = Teresawa et al., Japan. Cir. J. 35, 339 (1971); cited from earlier work
[2] = system: spontaneously hypertensive rats; assay: mean arterial blood pressure in spontaneously hypertensive rats, indwelling cannulae in the tail arteries; format: in vivo; details: 50 mg/kg intraperitoneally, compared to vehicle-treated controls
Description: Further, spontaneously hypertensive rats were treated with 1-(2-pyrrylmethyl)-1,3-dihydro-2H-imidazole-2-thione at a dose of 50 mg/kg intraperitoneally, and mean arterial blood pressure was monitored for 250 minutes using indwelling cannulae in the tail arteries. […] The maximal blood pressure reduction was approximately 35-40 mmHg.

phenylpicolinic acid
inhibitory activity relative to fusaric acid (DBH): twice the inhibitory activity of fusaric acid

CCCCc1ccc(C(=O)O)nc1 [Fusaric acid]
toxic effect [1]: hepatotoxic

S=c1[nH]ccn1Cc1ccc[nH]1 [1-(2-Pyrrylmethyl)-1,3-dihydro-2H-imidazole-2-thione]
time to significant blood pressure reductions following treatment [2]: ≤ 30 min
maximal blood pressure reduction ([2]; monitored for 250 minutes, lowest blood pressures when monitoring was discontinued): 35-40 mmHg
